Data from article PMC5383655, “Development of Automated Patch Clamp Technique to Investigate CFTR Chloride Channel Function” (Frontiers in Pharmacology, 2017).

Target: T1, cystic fibrosis transmembrane conductance regulator (CFTR), wt (Homo sapiens, UniProt P13569)
T1 construct: wt-CFTR stably expressed in BHK cells
Test: automated whole-cell patch clamp, acute potentiation of current activated by […] Fsk on addition of […] compound
Assay type: cell-based

T1 sequence (P13569 whole entry): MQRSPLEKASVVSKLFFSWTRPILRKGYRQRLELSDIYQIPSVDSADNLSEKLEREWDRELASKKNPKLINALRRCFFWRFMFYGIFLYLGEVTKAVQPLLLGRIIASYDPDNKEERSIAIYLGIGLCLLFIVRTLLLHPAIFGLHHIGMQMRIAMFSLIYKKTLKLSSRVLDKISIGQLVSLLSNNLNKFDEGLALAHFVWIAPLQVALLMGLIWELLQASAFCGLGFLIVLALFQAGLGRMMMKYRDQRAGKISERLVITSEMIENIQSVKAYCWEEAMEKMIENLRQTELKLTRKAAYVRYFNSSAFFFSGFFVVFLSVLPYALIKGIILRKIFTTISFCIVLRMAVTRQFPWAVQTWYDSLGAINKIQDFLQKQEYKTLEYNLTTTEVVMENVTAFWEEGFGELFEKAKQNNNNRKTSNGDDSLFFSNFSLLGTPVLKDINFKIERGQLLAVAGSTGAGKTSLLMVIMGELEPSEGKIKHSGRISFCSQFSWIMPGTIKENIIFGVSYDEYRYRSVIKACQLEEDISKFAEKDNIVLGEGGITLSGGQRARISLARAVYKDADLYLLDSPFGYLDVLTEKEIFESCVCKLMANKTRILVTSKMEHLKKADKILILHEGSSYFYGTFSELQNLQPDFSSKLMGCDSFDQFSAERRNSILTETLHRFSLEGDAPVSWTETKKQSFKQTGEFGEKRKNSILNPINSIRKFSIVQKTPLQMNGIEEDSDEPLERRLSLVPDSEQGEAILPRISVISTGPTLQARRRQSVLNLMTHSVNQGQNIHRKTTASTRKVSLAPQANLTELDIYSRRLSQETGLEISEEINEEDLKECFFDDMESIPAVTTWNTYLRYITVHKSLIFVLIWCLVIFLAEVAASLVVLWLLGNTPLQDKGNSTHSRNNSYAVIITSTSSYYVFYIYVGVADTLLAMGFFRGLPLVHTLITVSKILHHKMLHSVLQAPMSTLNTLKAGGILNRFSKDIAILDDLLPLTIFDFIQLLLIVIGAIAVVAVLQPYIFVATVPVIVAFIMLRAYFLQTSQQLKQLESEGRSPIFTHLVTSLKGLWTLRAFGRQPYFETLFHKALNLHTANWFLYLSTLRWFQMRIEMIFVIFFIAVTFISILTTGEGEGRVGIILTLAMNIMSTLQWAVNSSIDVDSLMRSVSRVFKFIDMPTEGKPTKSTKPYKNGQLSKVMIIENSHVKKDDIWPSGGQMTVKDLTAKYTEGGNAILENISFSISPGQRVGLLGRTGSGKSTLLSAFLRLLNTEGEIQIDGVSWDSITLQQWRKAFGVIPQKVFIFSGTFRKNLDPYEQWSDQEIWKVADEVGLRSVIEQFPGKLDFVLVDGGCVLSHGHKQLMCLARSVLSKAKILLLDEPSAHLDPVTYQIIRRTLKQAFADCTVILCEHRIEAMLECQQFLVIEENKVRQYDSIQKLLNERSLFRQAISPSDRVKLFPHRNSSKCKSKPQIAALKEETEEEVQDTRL

Compound: CC(C)(C)c1cc(C(C)(C)C)c(NC(=O)c2c[nH]c3ccccc3c2=O)cc1O [VX770]
- automated whole-cell patch clamp, acute potentiation of current activated by 1 μ: clearly demonstrate potentiation of the Fsk-activated current by the potentiator VX770
